# Source: ChEMBL document CHEMBL4673372, “1,2,3-triazole-thiazole hybrids: Synthesis, in vitro antimicrobial activity and antibiofilm studies” (Bioorg Med Chem Lett, 2021)
# Experiments:
# [1] = Selectivity index, ratio of CC50 for human THP-1 cells to MIC for Staphylococcus aureus MTCC 96; assay type: toxicity
# [2] = Cytotoxicity against human THP-1 cells; assay type: cell-based
# THP-1 [3] = assay: Cytotoxicity against human THP-1 cells assessed as cell damage at 200 uM by LDH assay; assay type: cell-based; settings: thp-1, 200 µM
# THP-1 [4] = assay: Cytotoxicity against human THP-1 cells assessed as reduction in cell viability at 200 uM by MTT assay; assay type: cell-based; settings: thp-1, 200 µM
# Staphylococcus aureus [5] = assay: Bactericidal activity against Staphylococcus aureus MTCC 96; assay type: functional
# Pseudomonas aeruginosa [6] = assay: Antibacterial activity against Pseudomonas aeruginosa MTCC 2453 assessed as inhibition of bacterial growth by microtiter broth dilution method; assay type: functional
# Escherichia coli [7] = assay: Antibacterial activity against Escherichia coli MTCC 739 assessed as inhibition of bacterial growth by microtiter broth dilution method; assay type: functional
# Raoultella planticola [8] = assay: Antibacterial activity against Klebsiella planticola MTCC 530 assessed as inhibition of bacterial growth by microtiter broth dilution method; assay type: functional
# Micrococcus luteus [9] = assay: Antibacterial activity against Micrococcus luteus MTCC 2470 assessed as inhibition of bacterial growth by microtiter broth dilution method; assay type: functional
# Bacillus subtilis [10] = assay: Antibacterial activity against Bacillus subtilis MTCC 121 assessed as inhibition of bacterial growth by microtiter broth dilution method; assay type: functional
# Staphylococcus aureus [11] = assay: Antibacterial activity against Staphylococcus aureus MLS16 MTCC 2940 assessed as inhibition of bacterial growth by microtiter broth dilution method; assay type: functional
# Staphylococcus aureus [12] = assay: Antibacterial activity against Staphylococcus aureus MTCC 96 assessed as inhibition of bacterial growth by microtiter broth dilution method; assay type: functional
# Candida albicans = assay: Inhibition of biofilm formation in Candida albicans MTCC 3017 incubated for 24 hrs by crystal violet staining based microtiter plate method; assay type: functional, organism-based
# Pseudomonas aeruginosa [13] = assay: Inhibition of biofilm formation in Pseudomonas aeruginosa MTCC 2453 incubated for 24 hrs by crystal violet staining based microtiter plate method; assay type: functional, organism-based
# Escherichia coli [14] = assay: Inhibition of biofilm formation in Escherichia coli MTCC 739 incubated for 24 hrs by crystal violet staining based microtiter plate method; assay type: functional, organism-based
# Raoultella planticola [15] = assay: Inhibition of biofilm formation in Klebsiella planticola MTCC 530 incubated for 24 hrs by crystal violet staining based microtiter plate method; assay type: functional, organism-based
# Micrococcus luteus [16] = assay: Inhibition of biofilm formation in Micrococcus luteus MTCC 2470 incubated for 24 hrs by crystal violet staining based microtiter plate method; assay type: functional, organism-based
# Bacillus subtilis [17] = assay: Inhibition of biofilm formation in Bacillus subtilis MTCC 121 incubated for 24 hrs by crystal violet staining based microtiter plate method; assay type: functional, organism-based
# Staphylococcus aureus [18] = assay: Inhibition of biofilm formation in Staphylococcus aureus MLS16 MTCC 2940 incubated for 24 hrs by crystal violet staining based microtiter plate method; assay type: functional, organism-based
# Staphylococcus aureus [19] = assay: Inhibition of biofilm formation in Staphylococcus aureus […] incubated for 24 hrs by crystal violet staining based microtiter plate method; assay type: functional, organism-based
# Bacillus subtilis [20] = assay: Bactericidal activity against Bacillus subtilis MTCC 121; assay type: functional
# Escherichia coli [21] = assay: Bactericidal activity against Escherichia coli MTCC 739; assay type: functional
# Micrococcus luteus [22] = assay: Bactericidal activity against Micrococcus luteus MTCC 2470; assay type: functional
MIC (Pseudomonas aeruginosa [6]),MIC (Escherichia coli [7]),MIC (Micrococcus luteus [9]),MIC (Bacillus subtilis [10]),MIC (Staphylococcus aureus [11]),MIC (Staphylococcus aureus [12]),SMILES,MIC (Raoultella planticola [8]),IC50 (Candida albicans),IC50 (Escherichia coli [14]),IC50 (Raoultella planticola [15]),IC50 (Staphylococcus aureus [18]),IC50 (Staphylococcus aureus [19]),further results
> 242 µM,> 242 µM,> 242 µM,> 242 µM,> 242 µM,15 µM,COc1ccc(-n2cc(COc3ccc(/C=N/Nc4nc(-c5ccc(Cl)cc5)cs4)cc3)nn2)cc1,> 242 µM,–,–,–,–,–,selectivity ratio [1]: 2.58; CC50 [2]: 38.7 µM; Activity (THP-1 [3]): Toxic; Activity (THP-1 [4]): Toxic; MBC (Staphylococcus aureus [5]): 30.2 µM
> 186 µM,> 186 µM,> 186 µM,> 186 µM,> 186 µM,> 186 µM,CCOc1cc(Br)cc2cc(-c3csc(N/N=C/c4ccc(OCc5cn(-c6ccc(OC)cc6)nn5)cc4)n3)c(=O)oc12,> 186 µM,Not Active,Not Active,Not Active,Not Active,Not Active,IC50 (Pseudomonas aeruginosa [13]): Not Active; IC50 (Micrococcus luteus [16]): Not Active; IC50 (Bacillus subtilis [17]): Not Active
> 223 µM,> 223 µM,> 223 µM,> 223 µM,> 223 µM,> 223 µM,COc1ccc(-n2cc(COc3ccc(/C=N/Nc4nc(-c5ccc(F)cc5)cs4)cc3)nn2)cc1,> 223 µM,–,–,–,–,–,–
> 210 µM,> 210 µM,> 210 µM,> 210 µM,> 210 µM,> 210 µM,CCOc1cccc2cc(-c3csc(N/N=C/c4ccc(OCc5cn(-c6ccc(OC)cc6)nn5)cc4)n3)c(=O)oc12,> 210 µM,Not Active,Not Active,Not Active,Not Active,Not Active,IC50 (Pseudomonas aeruginosa [13]): Not Active; IC50 (Micrococcus luteus [16]): Not Active; IC50 (Bacillus subtilis [17]): Not Active
> 244 µM,> 244 µM,> 244 µM,7.6 µM,> 244 µM,7.6 µM,COc1ccc(-c2csc(N/N=C/c3ccc(OCc4cn(-c5ccc(OC)cc5)nn4)cc3)n2)cc1,> 244 µM,–,–,–,–,–,selectivity ratio [1]: 5.13; CC50 [2]: 39 µM; Activity (THP-1 [3]): Toxic; Activity (THP-1 [4]): Toxic; MBC (Bacillus subtilis [20]): 30.4 µM; MBC (Staphylococcus aureus [5]): 30.4 µM
> 176 µM,5.5 µM,5.5 µM,5.5 µM,> 176 µM,> 176 µM,COc1ccc(-n2cc(COc3ccc(/C=N/Nc4nc(-c5cc6cc(Br)cc(Br)c6oc5=O)cs4)cc3)nn2)cc1,> 176 µM,Not Active,Not Active,Not Active,Not Active,Not Active,"IC50 (Pseudomonas aeruginosa [13]; Pseudomonas aeruginosa, MTCC 2453, 24 h, read-out: IC50): 110 µM; IC50 (Micrococcus luteus [16]; Micrococcus luteus, MTCC 2470, 24 h, read-out: IC50): 45.1 µM; IC50 (Bacillus subtilis [17]; Bacillus subtilis, MTCC 121, 24 h, read-out: IC50): 42.6 µM; MBC (Escherichia coli [21]): 11 µM; MBC (Micrococcus luteus [22]): 11 µM; MBC (Bacillus subtilis [20]): 11 µM"
> 259 µM,> 259 µM,> 259 µM,> 259 µM,> 259 µM,> 259 µM,COc1ccc(-n2cc(COc3ccc(/C=N/Nc4nc(-c5ccccc5)cs4)cc3)nn2)cc1,> 259 µM,–,–,–,–,–,–
